From US9714213B2, “4-aminomethylbenzoic acid derivative” (TOA EIYO LTD., priority 2013, dated 2017) come the findings set out here.

Like-named read-outs stand apart in the source and are kept apart here.

In test [1] the target is T1, human sGC (Homo sapiens, UniProt Q02153).
T1 construct: expressed in transfected cells; host or cells: CHO-K1 (Chinese hamster ovary) cells
T1 sequence (Q02153 1-619): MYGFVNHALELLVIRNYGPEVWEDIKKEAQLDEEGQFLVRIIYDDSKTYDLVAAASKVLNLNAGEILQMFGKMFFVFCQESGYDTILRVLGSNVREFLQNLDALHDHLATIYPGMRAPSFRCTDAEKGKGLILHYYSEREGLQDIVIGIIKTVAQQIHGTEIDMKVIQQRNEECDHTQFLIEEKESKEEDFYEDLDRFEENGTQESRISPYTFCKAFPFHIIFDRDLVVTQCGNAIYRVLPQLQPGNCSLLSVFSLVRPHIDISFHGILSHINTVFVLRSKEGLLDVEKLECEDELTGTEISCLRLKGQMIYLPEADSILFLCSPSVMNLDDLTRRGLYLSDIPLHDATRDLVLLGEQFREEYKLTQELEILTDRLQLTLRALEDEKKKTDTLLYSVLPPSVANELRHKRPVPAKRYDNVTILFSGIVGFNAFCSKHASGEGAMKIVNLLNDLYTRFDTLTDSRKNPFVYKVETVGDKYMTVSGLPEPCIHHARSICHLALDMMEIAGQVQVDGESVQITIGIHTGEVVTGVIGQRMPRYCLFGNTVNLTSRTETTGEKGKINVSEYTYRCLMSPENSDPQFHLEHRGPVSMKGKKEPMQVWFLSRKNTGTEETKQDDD
T1 sequence (Q02108 1-690 partner): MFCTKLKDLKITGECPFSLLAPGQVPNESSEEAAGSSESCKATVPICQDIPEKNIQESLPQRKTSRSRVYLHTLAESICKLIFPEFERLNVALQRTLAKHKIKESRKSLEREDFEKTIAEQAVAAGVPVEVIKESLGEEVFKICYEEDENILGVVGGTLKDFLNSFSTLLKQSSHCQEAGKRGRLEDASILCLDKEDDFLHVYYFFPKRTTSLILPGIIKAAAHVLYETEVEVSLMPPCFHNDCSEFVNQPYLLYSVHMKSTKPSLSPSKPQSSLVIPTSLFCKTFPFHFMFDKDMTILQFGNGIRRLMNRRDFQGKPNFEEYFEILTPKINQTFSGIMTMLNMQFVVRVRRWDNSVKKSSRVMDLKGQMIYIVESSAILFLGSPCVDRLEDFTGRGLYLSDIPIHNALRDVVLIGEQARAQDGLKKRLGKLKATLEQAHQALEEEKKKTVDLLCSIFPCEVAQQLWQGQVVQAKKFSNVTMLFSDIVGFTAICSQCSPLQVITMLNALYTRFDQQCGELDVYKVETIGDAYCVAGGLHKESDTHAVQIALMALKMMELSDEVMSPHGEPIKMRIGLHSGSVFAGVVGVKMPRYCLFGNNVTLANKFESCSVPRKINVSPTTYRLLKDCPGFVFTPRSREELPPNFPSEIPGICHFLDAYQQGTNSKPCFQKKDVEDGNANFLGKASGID
As to the kind of experiment: Maximum effect of sGC activation (intracellular Ca2+, Fura2-AM) in CHO-K1 cells stably expressing human sGC and mouse CNGA2. The format is cell-based. The following applies: increase rate of sGC activity vs DMSO control, test compound 10 μmol/L. On the procedure: For the assay, chinese hamster ovary cells (CHO-K1 cells) stably expressing both α and β subunits of human sGC and mouse cyclic nucleotide-gated channel (CNGA2) were used.
The CHO-K1 cells stably expressing human sGC and mouse CNGA2 was cultured at 37° C. on F-12 medium containing 10% (v/v) fetal bovine serum (FBS), penicillin (100 U/mL), streptomycin (100 μg/mL), G418 (250 μg/mL) and Zeocin (250 μg/mL). The cells were suspended in a culture medium, seeded on a 96 well plate, and then cultured at 37° C. for 24 hours. The cells were washed with Assay buffer 1 (140 mmol/L sodium chloride, 5 mmol/L potassium chloride, 0.5 mmol/L magnesium chloride, 0.01 mmol/L calcium chloride, 10 mmol/L glucose, 0.4 mmol/L magnesium sulfate, 10 mmol/L 4-(2-hydroxyethyl)piperazin-1-ylethanesulfonic acid and 125 μmol/L sulfinpyrazone, pH 7.4), and then added a solution containing Fura2-AM, a fluorescent Ca^2+ indicator, in Assay buffer 1 at […] concentration thereto as an indicator solution, and cultured at 37° C. for 60 minutes. The culture medium was removed, and the cells were washed with Assay buffer 1, and then added a solution containing the test compound thereto, and cultured at room temperature for 10 minutes. A plate was placed onto a fluorometer (FlexStation II, Molecular Devices), and the intracellular calcium concentration was determined as the ratio of fluorescent intensity, obtained from measurement using 340 nm and 380 nm as excitation wavelength and 510 nm as detection wavelength.
The solution of the test compound was prepared by dissolving each test compound in DMSO at 10 mmol/L, and then diluting the solution for the test concentration at 10 μmol/L with Assay buffer (140 mmol/L sodium chloride, 5 mmol/L potassium chloride, 0.5 mmol/L magnesium chloride, 1 mmol/L calcium chloride, 10 mmol/L glucose, 0.4 mmol/L magnesium sulfate, 10 mmol/L 4-(2-hydroxyethyl)piperazin-1-ylethanesulfonic acid, […] sulfinpyrazone, 100 μmol/L isobutyl methyl xanthine, and 10 μmol/L 1H-[1,2,4]-oxadiazol[4,3-a]quinoxaline-1-one (hereinafter, ODQ), pH 7.4). The evaluation in the absence of ODQ was performed similarly, except that ODQ was not added to Assay buffer 2. As a control solution, a DMSO solution was used instead of the test compound solution.
The activity of the test compound defined as the increase rate of the sGC activity (%) at the time of adding the solution of the test compound with respect to the sGC activity at the time of adding the control solution, was calculated by dividing the fluorescent intensity ratio at the time of adding the test compound by the fluorescent intensity ratio of the control solution, and subtracting the sGC activity at the time of adding the control solution (100%).
If sGC is activated in this assay, intracellular cGMP concentration increases and accordingly intracellular Ca^2+ concentration is increased by opening of CNGA2. Accordingly, sGC activation can be measured as the change of Ca^2+ concentration in the cell. […] Accordingly, it is possible to evaluate maximum sGC activation effect including heme-dependent activation in the absence of ODQ, and also possible to evaluate heme independent sGC activation effect in the presence of ODQ.

In test [2] the test system is rat ventral aorta. As to the kind of experiment: Blood vessel relaxation activity, phenylephrine-contracted rat ventral aorta ring specimen. To be noted: relaxation of 1 μmol/L phenylephrine contraction; EC50 without ODQ / EC50 with 10 μmol/L ODQ. On the procedure: A representative compound of the present invention was assayed for blood vessel relaxation activity according to the Test Example described below. In the assay, a rat (male, SD) was phlebotomized from the upper part of the heart under pentobarbital (30 mg/kg) anesthesia, and the ventral aorta was extracted. The connective tissue adhering around the blood vessel in the ventral aorta was removed in an ice-cooled Krebs-Henseleit solution (KH solution) (118 mmol/L sodium chloride, 4.7 mmol/L potassium chloride, 1.2 mmol/L magnesium sulfate, 1.2 mmol/L potassium dihydrogenphosphate, 25 mmol/L sodium hydrogen carbonate, 2.5 mmol/L calcium chloride and 10 mmol/L glucose, pH 7.4). Then, a ring specimen of 2 mm length was prepared, and fixed in 5 mL organ bath filled with the KH solution. The KH solution was maintained at 37° C., and a mixed gas of 95% O2 and 5% CO2 was ventilated. The specimen was stabilized with 1 g of the resting tension for 1 hour. In the meantime, the KH solution was exchanged twice. The tension of the specimen was recorded with a multichannel recorder through a pickup and an amplifier. After stabilization of the specimen, contraction was induced with 1 μmol/L phenylephrine (Phe), and cumulative administration of each compound (0.001, 0.01, 0.03, 0.1, 0.3, 1, 3, 10, 30, 100, 1000, 10000 nmol/L) was carried out. In the case of evaluation at the time of containing ODQ, 10 μmol/L ODQ was added 10 minutes before administration of Phe, and similar evaluation was performed.
EC50 value was calculated by Four-parameter Logistic Model with Assay Explorer (Accelrys, Inc.). Meanwhile, the solution of the test compound was prepared by dissolving the compound in DMSO to prepare solutions having the concentration of each test compound 1000 times higher than the final concentration.

Setting [3] is: 10 μmol/L ODQ present, read-out: Emax (%) ODQ+ (Heme-independent).
The mark [4] stands for this setting: absence of ODQ, read-out: Emax (%) ODQ− (Heme-dependent).

Broadly, the Emax is the maximal effect, on the per cent scale that the assay sets.

In the case of `N#Cc1cccc([C@H](CN(CCCCC(=O)O)Cc2ccc(C(=O)O)cc2)OCc2ccc(CCc3ccccc3)cc2)c1` [Example 30, (−)-4-{[N-(4-Carboxybutyl)-N-[(2R)-2-(3-cyanophenyl)-2-[4-(2-phenylethyl)benzyloxy]ethyl]amino]methyl}benzoic acid], the Emax at 10 µM was 129% in test [1] (setting [3]) and 83.4% in test [1] (setting [4]).
On to `CC(C)(CCN(Cc1ccc(C(=O)O)cc1)CC(OCc1ccc(CCc2ccccc2)cc1)c1ccccc1)CC(=O)O` (stereo not shown) [Example 18], for which the Emax at 10 µM in test [1] (setting [3]) was 129%; in test [1] (setting [4]) it was 96.2%.
In the case of `O=C(O)CCCCN(Cc1ccc(C(=O)O)cc1)CC(OCc1ccc(CCc2ccccc2)s1)c1cccc(Cl)c1` (stereo not shown) [Example 24, 4-{[N-(4-Carboxybutyl)-N-[2-(3-chlorophenyl)-2-[5-(2-phenylethyl)thiophen-2-ylmethoxy]ethyl]amino]methyl}benzoic acid], the figures for the Emax at 10 µM in test [1] (setting [3]) and in test [1] (setting [4]) were 132% and 150%, respectively.
As for `CC(C)(C)c1cccc(COC(CN(CCCCC(=O)O)Cc2ccc(C(=O)O)cc2)c2ccccc2)c1` (stereo not shown) [Example 10, 4-{[N-[2-(3-tert-Butylbenzyloxy)-2-phenylethyl]-N-(4-carboxybutyl)amino]methyl}benzoic acid], the figures for the Emax at 10 µM in test [1] (setting [3]) and in test [1] (setting [4]) were 141% and 103%, respectively.
For the compound `O=C(O)CCCCN(Cc1ccc(C(=O)O)cc1)CC(OCc1ccc(CCc2ccccc2)cc1)c1cccs1` (stereo not shown) [Example 19], the Emax at 10 µM in test [1] (setting [3]) stood at 122%; in test [1] (setting [4]) it was 114%. The “EC50 Ratio (ODQ−/ODQ+)” value in test [2] worked out at 6.20.
In the case of `O=C(O)CCCCN(Cc1ccc(C(=O)O)cc1)C[C@H](OCc1ccc(CCc2ccc(Cl)cc2)cc1)c1ccccc1` [Example 40, (−)-4-{[N-(4-Carboxybutyl)-N-[(2R)-2-[4-[2-(4-chlorophenyl)ethyl]benzyloxy]-2-phenylethyl]amino]methyl}benzoic acid], the Emax at 10 µM in test [1] (setting [3]) is 120%; in test [1] (setting [4]), 127%.
The like results for `O=C(O)CCCCCN(Cc1ccc(C(=O)O)cc1)CC(OCc1ccc(CCc2ccccc2)cc1)c1ccccc1` (stereo not shown) [Example 15, 4-{[N-(5-Carboxypentyl)-N-[2-[4-(2-phenylethyl)benzyloxy]-2-phenylethyl]amino]methyl}benzoic acid] were, in that order, 87.7% and 89.1%.
As for `CC(C)(C)c1cc(CO[C@@H](CN(CCCCC(=O)O)Cc2ccc(C(=O)O)cc2)c2ccccc2)cc(C(C)(C)C)c1` [Example 46, (−)-4-{[N-(4-Carboxybutyl)-N-[(2R)-2-(3,5-di-tert-butylbenzyloxy)-2-phenylethyl]amino]methyl}benzoic acid], the Emax at 10 µM came out at 108% in test [1] (setting [3]) and 161% in test [1] (setting [4]).
The like results for `CC(C)(C)c1cccc(CO[C@@H](CN(CCCCC(=O)O)Cc2ccc(C(=O)O)cc2)c2cccc(Cl)c2)c1` [Example 34, (−)-4-{[N-[(2R)-2-(3-tert-Butylbenzyloxy)-2-(3-chlorophenyl)ethyl]-N-(4-carboxybutyl)amino]methyl}benzoic acid] were, in that order, 125% and 82.3%.
Taken in the same sequence, the figures for `O=C(O)CCCCN(Cc1ccc(C(=O)O)cc1)C[C@H](OCc1ccc(CCc2ccccc2)s1)c1ccccc1` [Example 43, (−)-4-{[N-(4-Carboxybutyl)-N-[(2R)-2-[5-(2-phenylethyl)thiophen-2-ylmethoxy]-2-phenylethyl]amino]methyl}benzoic acid] were 124% and 108%.
In the case of `O=C(O)CCCCN(CCc1ccccc1OCc1ccc(CCc2ccccc2)cc1)Cc1ccc(C(=O)O)cc1` [Cinaciguat, reference compound], the “EC50 Ratio (ODQ−/ODQ+)” value in test [2] is 12.4.
As to `O=C(O)CCCCN(Cc1ccc(C(=O)O)cc1)CC(OCc1ccc(CCc2ccccc2)cc1)c1cccc(Cl)c1` (stereo not shown) [Example 22, 4-{[N-(4-Carboxybutyl)-N-[2-(3-chlorophenyl)-2-[4-(2-phenylethyl)benzyloxy]ethyl]amino]methyl}benzoic acid], the Emax at 10 µM in test [1] (setting [3]) was 115%; in test [1] (setting [4]), 106%.
The like results for `O=C(O)CCCCN(Cc1ccc(C(=O)O)cc1)CC(OCc1cccc(CCc2ccccc2)c1)c1ccccc1` (stereo not shown) [Example 60, 4-{[N-(4-Carboxybutyl)-N-[2-[3-(2-phenylethyl)benzyloxy]-2-phenylethyl]amino]methyl}benzoic acid] were, in that order, 88.9% and 110%.
The like results for `O=C(O)CCCCN(Cc1ccc(C(=O)O)cc1)C[C@H](OCc1ccc(CCC2CCCC2)cc1)c1ccccc1` [Example 39, (−)-4-{[N-(4-Carboxybutyl)-N-[(2R)-2-[4-(2-cyclopentylethyl)benzyloxy]-2-phenylethyl]amino]methyl}benzoic acid] were, in that order, 142% and 148%.
